Patent publication US20050049204A1, “Compounds for the treatment of flaviviridae infections” (priority 2003, published 2005)
Counter-ions that a name gives are not always drawn. Like-named read-outs stand apart in the source and are kept apart here.

Assays:
[1] = tested on: HCV-replicon RNA-containing Huh7 cells (HCV RNA); assay: HCV replicon assay: HCV RNA quantified by Q-RT-PCR after 96 h of compound exposure; assay type: cell-based, hepatitis C virus (HCV); conditions: for EC90: read-out: Corrected HCV RNA EC90; for effect on cytoplasmic HCV RNA metabolism: replicon system; for log reduction at 10 µM: read-out: Corrected HCV RNA log10 reduction at 10 μM; for specific inhibition of the replicon: RNR inhibitors tested
Description: (§1) Incubation times differed according to the type of experiment.

[2] = tested on: rRNA in HCV-replicon RNA-containing Huh7 cells; assay: rRNA levels in HCV replicon cells (cellular toxicity), Q-RT-PCR after 96 h; conditions: 100 μM
Description: HCV replicon cells were seeded in the presence of test compound at approximately 10^3 cells per well in a 96-well plate and incubated for 96 hours. rRNA and HCV RNA were quantified by Q-RT-PCR. ●: HCV RNA levels; ◯: rRNA levels; ▾: HCV RNA levels after correction (=subtraction of rRNA) for cellular toxicity. […] The plots shown are the mean results of at least three independent experiments. EC90 values as given in Table 1 are read from the HCV curves corrected for cellular toxicity.
HCV-replicon RNA-containing Huh7 cells (Clone A cells; Apath, LLC, St. Louis, Mo.) were kept in exponential growth in DMEM media (high glucose, no pyruvate) containing 10% fetal bovine serum, 1× non-essential amino acids (100 units/ml), penicillin-streptomycin (100 μg/ml), glutamine (0.292 mg/ml), and G418 (1,000 μg/ml). Antiviral assays were performed in the same medium without G418. […] Cells were seeded in a 6-well plate at 10^5 cells per well. Candidate antiviral compounds were tested as described (Stuyver, et al. “A ribonucleoside analogue that blocks the replication of bovine viral diarrhea and hepatitis C viruses in culture” Antimicrob. Agents Chemother., January 2003, 47 (1), 244-254). Incubation times differed according to the type of experiment. At the end of the incubation step, cells were counted using the trypan-blue exclusion method, and total cellular RNA was isolated (Rneasy 96 kit, Qiagen, CA). Replicon RNA and an internal control (TaqMan Ribosomal RNA Control Reagents, Applied Biosystems, CA) were amplified in a single-step, multiplex RT-PCR protocol, as recommended by the manufacturer and as described (Stuyver, et al. “A ribonucleoside analogue that blocks the replication of bovine viral diarrhea and hepatitis C viruses in culture” Antimicrob. Agents Chemother., January 2003, 47 (1), 244-254).
Replicon cells were incubated in the absence or presence of these anti-metabolites for 96 hours, after which intracellular rRNA and HCV RNA levels were quantified (Table 1).

[3] = tested on: HCV replicon RNA in Huh7 cells; assay: Reversal studies with natural nucleosides: HCV RNA; assay type: cell-based, hepatitis C virus (HCV); conditions: for log10 reduction HCV: no nucleoside
Description: as §1
(§2) Cells were incubated with the test compound and, simultaneously, the natural ribo- or 2′-deoxy nucleosides (adenosine, guanosine (G), cytidine (C), uridine (U), 2′-deoxycytidine (dC), 2′-deoxyuridine, thymidine, 2′-deoxyguanosine (dG), and 2′-deoxyadenosine) (Table 2).

[4] = tested on: rRNA in HCV replicon Huh7 cells; assay: Reversal studies with natural nucleosides: rRNA; assay type: cell-based; conditions: for log10 reduction rRNA: no nucleoside
Description: as §1, §2

[5] = tested on: HCV replicon RNA in Huh7 cells; assay: HCV RNA levels in replicon cells over a 7-day period; assay type: cell-based, hepatitis C virus (HCV); conditions: 20 μM, 7-day period
[6] = tested on: HCV replicon-containing Huh7 cell line; assay: Dynamics of replicon cell growth (cell count) over a 7-day period; conditions: 20 μM, 7-day period
[7] = 10 μM, 96 h, corrected by subtraction of rRNA
[8] = 100 μM, 96 h, corrected by subtraction of rRNA
[9] = 96 h, read from HCV curves corrected for rRNA reduction
[10] = Hepatitis C virus, Huh-7, 96 h, read from HCV curves corrected for rRNA reduction
[11] = Hepatitis C virus, Huh-7, 100 μM, 96 h, corrected by subtraction of rRNA, read-out: Corrected HCV RNA log10 reduction at 100 μM
[12] = Hepatitis C virus, Huh-7, 100 μM, 96 h, read-out: Log10 RNA reduction (100 μM) HCV

O=c1cnn([C@@H]2O[C@H](CO)[C@@H](O)[C@H]2O)c(=S)[nH]1 [2-thio-6-azauridine]
Corrected HCV RNA log10 reduction at 10 μM [1, 7]: 0.12 ± 0.10 log10
Log10 RNA reduction (100 μM) HCV ([1]; 100 μM, 96 h): 0.16 ± 0.04 log10
Corrected HCV RNA log10 reduction at 100 μM [1, 8]: 0.19 ± 0.09 log10
EC90 [1, 9]: > 100 µM
effect on cytoplasmic HCV RNA metabolism [1]: little effect
Log10 RNA reduction (100 μM) rRNA [2]: −0.02 ± 0.12 log10

O=c1[nH]c(=O)n([C@H]2C[C@H](O)[C@@H](CO)O2)cc1F [2′-deoxy-5FU, 2′-deoxy-5-fluorouridine]
Corrected HCV RNA log10 reduction at 10 μM [1, 7]: 0.23 ± 0.05 log10
log reduction at 100 µM ([1]; Hepatitis C virus, Huh-7, 96 h, read-out: Corrected HCV RNA log10 reduction at 100 μM): 0.04 ± 0.25
EC90 [1, 10]: > 100 µM
Log10 RNA reduction (100 μM) rRNA [2]: 0.73 ± 0.35 log10

C[C@@]1(O)[C@H](O)[C@@H](CO)O[C@H]1n1cnc2c(N)ncnc21 [2′C—CH3-A, 2′-C-methyl-adenosine]
log reduction at 10 µM ([1]; Hepatitis C virus, Huh-7, 10 μM, 96 h, corrected by subtraction of rRNA): 2.05
log reduction at 100 µM [1, 11]: -0.64 ± 0.18
log reduction at 100 µM [1, 12]: 2.32 ± 0.11
EC90 [1, 10]: < 1 µM
Log10 RNA reduction (100 μM) rRNA [2]: 2.96 ± 0.08 log10
log10 reduction HCV ([3]; 100 μM): 2.32 ± 0.11 log10
log10 reduction rRNA ([4]; 100 μM): 2.96 ± 0.08 log10
reducing the HCV RNA levels [5]: very potent
effect on cell proliferation [6]: minimal

O=c1cnn([C@@H]2O[C@H](CO)[C@@H](O)[C@H]2O)c(=O)[nH]1 [6-aza uridine, 6-aza-uridine]
EC90 [1, 10]: > 100 µM
effect on cytoplasmic HCV RNA metabolism [1]: little effect
Log10 RNA reduction (100 μM) rRNA [2]: 0.61 ± 0.18 log10

Nc1ccn([C@@H]2C=C(CO)[C@@H](O)[C@H]2O)c(=O)n1 [CPE-C, cyclopentenyl-cytosine]
EC90 [1, 10]: 2.5 µM
Log10 RNA reduction (100 μM) rRNA [2]: 1.21 ± 0.16 log10
log10 reduction HCV including natural nucleoside ([3]; 2 μM + C at 50 μM): 0.30 ± 0.06 log10
log10 reduction HCV including natural nucleoside ([3]; 2 μM + U at 50 μM): 0.58 ± 0.04 log10
log10 reduction HCV ([3]; 2 μM): 1.76 ± 0.04 log10
log10 reduction rRNA including natural nucleoside ([4]; 2 μM + C at 50 μM): −0.04 ± 0.01 log10
log10 reduction rRNA including natural nucleoside ([4]; 2 μM + U at 50 μM): 0.32 ± 0.03 log10
log10 reduction rRNA ([4]; 2 μM): 0.99 ± 0.04 log10

COc1c(C)c2c(c(O)c1CCOP(=O)(O)CP(=O)(O)OC[C@H]1O[C@@H](n3cnc4c(N)ncnc43)[C@H](O)[C@@H]1O)C(=O)OC2 [Compound C2-MAD]
Corrected HCV RNA log10 reduction at 10 μM [1, 7]: 0.36 ± 0.21 log10
Log10 RNA reduction (100 μM) HCV ([1]; 100 μM, 96 h): 1.09 ± 0.21 log10
Corrected HCV RNA log10 reduction at 100 μM [1, 8]: 0.08 ± 0.24 log10
EC90 [1, 9]: > 100 µM
Log10 RNA reduction (100 μM) rRNA [2]: 1.00 ± 0.15 log10

CC(=O)N(O)CCCCCNC(=O)CCC(=O)N(O)CCCCCNC(=O)CCC(=O)N(O)CCCCCN [Deferoxamine, deferoxamine mesylate]
log reduction at 10 µM ([1]; Hepatitis C virus, Huh-7, 96 h): 0.17 ± 0.11
log reduction at 100 µM [1, 11]: 0.08 ± 0.03
log reduction at 100 µM [1, 12]: 1 ± 0.06
EC90 [1, 10]: > 100 µM
specific inhibition of the replicon [1]: none
Log10 RNA reduction (100 μM) rRNA [2]: 0.92 ± 0.08 log10

Nc1n[nH]c(N)n1 [Guanazole, guanazole]
Log10 RNA reduction (100 μM) HCV ([1]; 100 μM, 96 h): 0.25 ± 0.11 log10
Corrected HCV RNA log10 reduction at 100 μM [1, 8]: 0.32 ± 0.08 log10
EC90 ([1]; Hepatitis C virus, Huh-7, 96 h): > 100 µM
log reduction at 10 µM ([1]; Hepatitis C virus, Huh-7, 96 h): 0.05 ± 0.08
specific inhibition of the replicon [1]: none
Log10 RNA reduction (100 μM) rRNA [2]: 0.07 ± 0.03 log10
